Source: US12055553B2, “Method for diagnosing risk for inflammatory disease through glycan profiling” (The Regents of the University of California, priority 2017, dated 2024)

Columns and labels:
HT-29 cells = test: Cell surface N-glycan profiling (PGC-LC-MS) of HT-29 after supplementation; format: cell-based, Human; details: HT-29, 72 h
Protocol: (§1) We examined whether supplementation of free monosacchaides derived from diet changes N-glycosylation outcomes on the intestinal cell-surface at concentrations relevant to physiological conditions. Changes in glycosylation were assessed by globally releasing glycans from membrane proteins extracted from fully differentiated (Caco-2) and partially differentiated (HT-29) intestinal epithelial cells and analyzing the mixture by porous graphitized carbon (PGC)-LC-MS. […] The glycan profile under normal growth conditions was used as a frame of reference with which to compare the glycome at varied environments.
(§2) Human colorectal adenocarcinoma Caco-2 cells derived from a person, were obtained from American Type Culture Collection (ATCC, VA) and grown in Eagle's Minimum Essential Medium (EMEM) supplemented with non-essential amino acids, 2 mM L-glutamine, 10% (v/v) fetal bovine serum (Life Technologies, NY), 1 mM sodium pyruvate, 1.5 g/L sodium bicarbonate, 100 U/mL penicillin, and 100 μg/mL streptomycin. Alternatively, Caco-2 cells were grown in Dulbecco's Modified Eagle's Medium (DMEM) supplemented with 10% (v/v) fetal bovine serum, 100 U/mL penicillin, and 100 μg/mL streptomycin. Human colorectal adenocarcinoma HT-29 cells, derived from a person, were obtained from ATCC and grown in McCoy's 5A medium supplemented with 10% (v/v) fetal bovine serum, 100 U/mL penicillin, and 100 μg/mL streptomycin. Cells were subcultured at 80% confluency and maintained at 37° C. in a humidified incubator with 5% CO=2. All treatments were added to the media after cell differentiation. Caco-2 cells were fully differentiated 14-days post-confluency. HT-29 cells were partially differentiated 4-days post-confluency. After 72 h, cells were collected in biological triplicates by scraping A fixed count of 2×10^6 viable cells was used for each experiment Passage number between experiments was controlled to no higher than P40 and a delta P of no more than 20. High passage cells were scraped after P80. Media was renewed three times a week unless specified. Monolayer integrity and quality of cell borders were evaluated under the microscope routinely during growth and before harvest.
(§3) In brief harvested cells were resuspended in homogenization buffer containing 0.25 M sucrose, 20 mM HEPES-KOH (pH 7.4), and 1:100 protease inhibitor (EMD Millipore, CA). Cell lysis was performed on ice using a probe sonicator (Qsonica, CT) with five alternating and on and off pulses in 5 and 10 s intervals, respectively. Lysates were […] at 2,000×g for 10 min to remove the nuclear fraction and cellular debris. The supernatant was collected and brought to 1 mL with homogenization buffer for ultracentrifugation at 200,000×g for 45 min at 4° C. The pallet was resuspended and repelleted by ultracentrifugation in 0.2 M Na2CO3 (pH 11) followed by water to fragment the endoplasmic reticulum and remove the cytoplasmic fraction, respectively. The resulting membrane faction was isolated and stored at −20° C. until further processing.
(§4) Membrane pellets were resuspended with 100 μL of 100 mM ammonium bicarbonate in 5 mM dithiothreitol and heated for 10 s at 100° C. to thermally denature the proteins. […] After addition of 400 μL of chilled ethanol, samples were placed in −80° C. for 1.5 h and centrifuged for 20 min at 21,130×g to precipitate residual deglycosylated proteins. The supernatant containing the released N-glycans was collected and dried. N-Glycans were purified by solid phase extraction containing a porous graphitized carbon (PGC) matrix. Eluted fractions were dried in vacuo.

THP-1 cells = test: Lectin array of THP-1 monocyte cell surface glycan composition after monosaccharide supplementation; format: cell-based; details: 3 days
Protocol: THP-1 cells (monocyte cell line) were incubated with different sugars (i.e. monosaccharides) for 3 days. Lectin arrays were used to detect changes in the cell surface glycan composition. Secreted HDL from the cell supernatant (monocytes secrete their own HDL) was isolated and then analyzed to determine the glycan composition.
• ConA (Concanavalin A): binds internal and nonreducing terminal α-D-mannosyl (αMan) and α-D-glucosyl groups (αGIc) • JAC (Jacalin): binds galactose-containing O-glycoproteins (Galβ3GalNac) • SNA (Sambucus nigra): binds sialic acid attached to terminal galactose in α-2,6 and to a lesser degree, α-2,3 linkage (Neu5Acα6Gal/GalNac) • AAL (Aleuria auanda lectin): binds fucose linked (α-1,6) to N-acetylglucosamine or to fucose linked (α-1,3) to N-acetyllactosamine related structures, exposed core (α-1, 6) and outer arm (α-1, 2 or α-1, 3) linked fucose moieties. Sugar Treatments: • L-fucose: Tested 2 doses: 300 umol/L (physiologic) and 100 mmol/L. (Marquardt T, Blood, December 15; 94(12):3976-85, 1999): Named L-Fuc Low and L-Fuc High • Fructose: Tested 2 doses: 27 mmol/L (physiologic) and 100 mmol/L. (Hui H, Pancreas, August 38(6): 706-12, 2009); Named Fruc Low and Fruc High • N-acetylglucosamine (GlcNAc): Tested 1 dose: 100 mmol/L. (Villiger TK, Controlling the time evolution of mAb N-finked glycosylation, Part I: Microbioreactor experiments, Biotechnol Prog, September; 32(5):1123-1134, 2016) • Galactose: The two doses for the galactose treatment in the glycan array experiments were: 150 mmol/L and 75 mmol/L. (Villiger TK, Controlling the time evolution of mAb N-linked glycosylation, Part II: Model-based predictions, Biotechnol Prog, September; 32(5):135-1148, 2016)

Caco-2 cells [1] = format: cell-based
Protocol: as §1, §2, §3, §4

[2] = test system: alkaline phosphatase (IAP); test: Intestinal alkaline phosphatase activity in membrane fractions of treated Caco-2 cells; format: cell-based, Human; details: enriched membrane fractions of kifunensine-treated (high mannose rich) cells
Protocol: Intestinal alkaline phosphatase (IAP) activity was measured in membrane-enriched factions using a colorimetric assay per manufacturer's instructions (Abcam, MA). Cells were incubated with 50 μM p-nitrophenyl phosphate (p-NPP) for 60 min. Dephosphorylated was monitored by the production of p-nitrophenyl, which turns the solution to a visible yellow color. Absorbance readings were taken at 405 nm with a microplate photometer. Enzyme activities were determined with a standard curve generated using IAP enzyme. Activity was measured in U/mL, where a Unit is defined as the amount of enzyme to hydrolyze 1 μmol of p-NPP per minute at 37° C.

[3] = test system: methicillin-resistant Staphylococcus aureus (MRSA); test: Bacterial association assay on Caco-2 host cells, MRSA; format: cell-based
Protocol: (§5) Enterohaemorrhagic Escherichia coli O157H;7 (EHEC) and methicillin-resistant Staphyloccuus aureus (MRSA) were grown at 37° C. with continuous shaking for 14-16 h.
(§6) Caco-2 cells were seeded into 24-well plates at 5×10^5 cells per well. Wells were designated as control (Row 1) or treated with kifunensine (Row 2). For adhesion, the left half of the plate was infected with logarithmically growing enterohaemorrhagic Escherichia coli O157:H7 (EHEC), and the right half of the plate was infected with methicillin-resistant Staphylocaccus aureus (MRSA). Triplicate setups were prepared for each condition. After 2 h, the wells were washed 3× with PBS and the adherent cell counts were determined by serial dilutions and spotting of the lysate generated upon treatment of the wells with, PBS/0.5% Triton for 5 min. CFU are expressed per mL as a comparison between the different treatments. For measuring uptake, the duplicate plate was similarly infected with EHEC and MRSA. Two hours post-infection, the unbound bacteria were washed with PBS (3×) and the Caco-2-cells were treated with media containing 100 μg/mL gentamicin to lyse cell surface associated bacteria. Following a 2 h-treatment, the internalized bacterial cell counts were derived upon lysing the Caco-2 cells with PBS/0.5% Triton followed by serial dilution and CFU counts.

[4] = test system: enterohaemorrhagic Escherichia coli (EHEC); test: Bacterial association assay on Caco-2 host cells, EHEC; format: cell-based, Escherichia coli O157:H7
Protocol: as §5, §6

Caco-2 cells [5] = test: Permeability assay, FITC-dextran passage through Caco-2 monolayer; format: cell-based, Human; details: 100 μg/mL treatment, after 2 h, untreated to treated, n=4
Protocol: Caco-2 cells were seeded on porous polycarbonate filter membranes (3401; Corning, NY) until cells formed a single monolayer and were fully differentiated. Kifunensine (Carbosynth, CA) was added post-differeniation for 72 h. Four replicates were prepared for both control and kifunensine-treated cases. Permeability experiments were performed in Hank's Balanced Salt Solution, prepared with 25 mM HEPES, 0.35 g/L sodium bicarbonate, and adjusted to pH 7.4 with sodium hydroxide. The prepared membranes were washed and inserted into a new micro-well plate. FITC-dextran (4 kDa) (Sigma-Aldrich, MO) was introduced to the upper (apical) chamber at 10 mg/mL. The plate was placed in a 37° C. incubator devoid of CO2 for 2 h on an orbital shaker at 100 rpm. The amount of FITC-dextran that transferred through the cells was measured in the lower (basolateral) chamber by fluorescence at 492/520 nm (excitation/emission) using a Perkin Elmer Victor3 Multilabel Plate Reader (Parkin Elmer, MA). The apparent permeability coefficient was determined according to the following equation: [formula] where dQ/dt is the rate of permeation across cells, A is the surface area of the membrane, and C0 is the initial donor concentration. Transepithelial electrical resistance (TEER) values were measured using a Millicell ERS Voltohmmeter (EMD Millipore, MA) at room temperature. Enzyme Activity Assay

[6] = test system: dipeptidyl peptidase IV (DPP IV); test: Dipeptidyl peptidase IV activity in membrane fractions of treated Caco-2 cells; format: cell-based, Human; details: membrane fractions of kifunensine-treated cells
Protocol: Dipeptidyl peptidase IV (DPP IV) activity was measured in membrane-enriched fractions using a colorimetric assay per manufacturer's instructions (Enzo Life sciences, NY). Membrane extracts from control and kifunensine-treated cells were incubated with a chromogenic substrate (H-Gly-Pro-pNa) at 25° C. for 30 min. Cleavage of p-nitroaniline (pNA) was monitored by absorbance measurements at […] with a microplate photometer. Enzyme activities were compared to a standard curve generated using a pNA standard. A reaction containing a DPP IV inhibitor (P32/98) was included as a control for enzymatic specificity.

[7] = cited from earlier work
[8] = high dose (galactose 150 mmol/L, fructose 100 mmol/L, L-fucose 100 mmol/L)
[9] = low dose (galactose 75 mmol/L, fructose 27 mmol/L, L-fucose 300 umol/L)
[10] = hyper-mannosylated (kifunensine-treated) Caco-2, within 2 h

## O=C(CO)[C@@H](O)[C@H](O)[C@H](O)CO [fructose]
HT-29 cells; fructose 50 mM, glutamine 10 mM
  change in fucosylated glycans: remained unaltered
HT-29 cells; mannose, fructose 50 mM, glutamine 10 mM, glutamate 2 mM
  change in high mannose type glycans: remained unaltered
THP-1 cells; [8]
  AAL binding (fucosylated glycans): decreased
  JAC binding (terminal galactose containing glycans): decreased
  SNA binding (terminal sialic acid): no effect
THP-1 cells; [9]
  AAL binding (fucosylated glycans): decreased
  SNA binding (terminal sialic acid): decreased
THP-1 cells; single dose (GlcNAc 100 mmol/L) or dose not distinguished
  ConA binding (glucose or mannose-terminated glycans): decreased
Caco-2 cells [1]; Caco-2, 72 h, fructose 50 mM, glutamine 10 mM
  increase in abundance of high mannose type N-glycans: 511%
Caco-2 cells [1]; Caco-2, 72 h, fructose 50 mM, GalNAc
  increase in abundance of non-decorated complex/hybrid type N-glycans: 672%
Caco-2 cells [1]; Caco-2, fructose 50 mM, 72 h
  fold increase of each of Hex3HexNAc4Fuc1, Hex4HexNAc5Fuc1, Hex6HexNAc4Fuc1, Hex5HexNAc5Fuc1: more than 4 fold

## O=C1N[C@@H]2[C@@H](O)[C@@H](O)[C@H](O)[C@@H](CO)N2C1=O [kifunensine]
[2]
  decrease in IAP activity vs unaltered Caco-2 cells: ~32%
[3]; [10]
  increase in ability of MRSA to adhere to the monolayer: > 5000%
[3]; kifunensine-transformed Caco-2
  more MRSA bacteria able to invade transformed host cells than untreated cells: approximately 30%
[4]; Caco-2 rich in high mannose glycans (kifunensine-treated), p=0.0005
  EHEC uptake in comparison to control cells: significantly reduced
[4]; [10]
  EHEC binding to the monolayer: did not significantly affect
Caco-2 cells [5]
  maximum increase in passage of FITC-D4 from upper to lower chamber: 64%
[6]
  DPP IV activity change: nearly unaffected
Caco-2 cells [1]; Caco-2, kifunensine-treated
  cell viability: without affecting viability
  conversion of surface glycans into high mannose glycans: nearly complete conversion

## CC(O)C(=O)O (centres unmarked) [lactate]
HT-29 cells; acetate, lactate 10 mM, glutathione 2 mM
  change in the HT-29 glycome / major groups of glycans: minimal effects
Caco-2 cells [1]; Caco-2, 72 h, fucose 25 mM, acetate, lactate, butyrate 10 mM, glutamine 10 mM
  change in fucosylated glycans / fucosylation: significant increase
Caco-2 cells [1]; Caco-2, SCFA 10 mM, 72 h
  fold decrease of Hex6HexNAc6Fuc1NeuAc3: 3.7 fold
  fold decrease of Hex7HexNAc7Fuc1NeuAc1: 3.4 fold
  fold increase of Hex6HexNAc6NeuAc1: 10 fold

## CC(=O)N[C@H]1[C@H]([C@H](O)[C@H](O)CO)OC(O)(C(=O)O)C[C@@H]1O (some centres unmarked) [sialic acid]
[7]
  pKa: 2.6
